Source: ChEMBL document CHEMBL3882731, “Novel sulfonaminoquinoline Hepcidin antagonists” (2014)
pIC50: −log10 of the molar value.

Molecular target: T1, Ferroportin (Homo sapiens, UniProt Q9NP59)
T1 sequence (Q9NP59 whole entry): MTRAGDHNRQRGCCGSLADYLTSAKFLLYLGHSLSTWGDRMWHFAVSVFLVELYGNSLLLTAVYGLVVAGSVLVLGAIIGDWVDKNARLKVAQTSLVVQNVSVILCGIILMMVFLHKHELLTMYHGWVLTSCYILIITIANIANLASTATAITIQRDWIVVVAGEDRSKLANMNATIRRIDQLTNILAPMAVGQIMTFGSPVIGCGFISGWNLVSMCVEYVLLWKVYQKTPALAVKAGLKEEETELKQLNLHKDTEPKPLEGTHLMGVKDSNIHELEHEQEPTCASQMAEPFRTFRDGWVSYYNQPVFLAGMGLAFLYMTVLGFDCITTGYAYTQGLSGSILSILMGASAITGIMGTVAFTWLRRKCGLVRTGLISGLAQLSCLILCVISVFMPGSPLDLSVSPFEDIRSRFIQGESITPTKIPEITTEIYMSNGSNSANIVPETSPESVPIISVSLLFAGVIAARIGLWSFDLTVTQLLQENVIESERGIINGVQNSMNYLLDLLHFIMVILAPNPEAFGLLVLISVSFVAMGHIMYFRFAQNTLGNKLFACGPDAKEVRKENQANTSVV
Test: Antagonist activity at C-terminal halo-tag fused human ferroportin expressed in MDCK cells assessed as inhibition of hepcidin-induced ferroportin internalization after overnight incubation by Draq5 staining-based fluorescence assay
Format: cell-based

Row | pIC50 | SMILES
1 | 4.00 | O=S(=O)(Nc1cc(Cl)cc2cccnc12)c1ccccc1
2 | 4.00 | COc1ccc(S(=O)(=O)Nc2cccc3cccnc23)c(N)c1
3 | 4.00 | O=[N+]([O-])c1cc(C(F)(F)F)ccc1S(=O)(=O)Nc1cccc2cccnc12
4 | 4.00 | COc1ccccc1S(=O)(=O)Nc1cccc2cccnc12
5 | 4.00 | CC(=O)Nc1cc(C(F)(F)F)ccc1S(=O)(=O)Nc1cccc2cccnc12
6 | 4.00 | O=S(=O)(Nc1ccc(Cl)c2cccnc12)c1ccc(Cl)cc1Cl
7 | 4.00 | Cc1ccc(S(=O)(=O)Nc2cccc3cc(C)cnc23)c(N)c1
8 | 4.00 | Cc1cc(NS(=O)(=O)c2ccccc2)c2ncccc2c1C
9 | 4.00 | COc1ccc(S(=O)(=O)Nc2cccc3cccnc23)cc1
10 | 4.00 | Cc1cccc(Cl)c1S(=O)(=O)Nc1cccc2cccnc12
11 | 4.00 | Nc1cc(C(F)(F)F)ccc1S(=O)(=O)Nc1ccc(Cl)c2cccnc12
12 | 4.00 | COc1cc(NS(=O)(=O)Nc2cccc(Cl)c2C)c2ncccc2c1
13 | 4.00 | Cc1ccc2cccc(NS(=O)(=O)c3ccccc3)c2n1
14 | 4.00 | Cc1cnc2c(NS(=O)(=O)c3ccc(Cl)cc3Cl)cccc2c1
15 | 4.00 | Cc1ccc2cccc(NS(=O)(=O)c3ccccc3N)c2n1
16 | 4.00 | O=S(=O)(Nc1cccc2cccnc12)c1c(Cl)cccc1Cl
17 | 4.00 | COc1cc(NS(=O)(=O)c2ccc(Cl)cc2Cl)c2ncccc2c1
18 | 4.00 | COc1ccc(S(=O)(=O)Nc2cccc3ccc(C)nc23)c(N)c1
19 | 4.00 | Cc1ccccc1S(=O)(=O)Nc1cccc2cccnc12

Continued, molecule first:

Row | SMILES | pIC50
20 | COC(=O)c1ccnc2c(NS(=O)(=O)c3ccccc3)cccc12 | 4.30
21 | Cc1ccc2cccnc2c1NS(=O)(=O)c1ccccc1 | 4.00
22 | Cc1ccc2ccc3c(c2n1)NS(=O)(=O)c1ccccc1-3 | 4.00
23 | CCOc1cc(NS(=O)(=O)c2ccccc2)c2ncccc2c1 | 4.00
24 | Cc1c(Cl)cccc1NS(=O)(=O)Nc1ccc(Cl)c2cccnc12 | 4.00
25 | O=S(=O)(Nc1c(Cl)ccc2cccnc12)c1ccccc1 | 4.00
26 | COc1ccnc2c(NS(=O)(=O)c3ccccc3)cccc12 | 4.00
27 | O=S(=O)(Nc1cccc2ccc(Cl)nc12)c1ccccc1 | 4.00
28 | O=S(=O)(Nc1c(O)ccc2cccnc12)c1ccccc1 | 4.00
29 | O=S(=O)(Nc1ccc(Br)c2cccnc12)c1ccccc1 | 4.00
30 | Cc1cc(NS(=O)(=O)c2ccccc2)c2ncccc2c1Cl | 4.00
31 | COc1ccc2cccnc2c1NS(=O)(=O)c1ccccc1 | 4.00
32 | CCc1ccc2cccnc2c1NS(=O)(=O)c1ccccc1 | 4.00
33 | Cc1cc(C)c(S(=O)(=O)Nc2c(Cl)cc(Cl)c3cccnc23)c(C)c1 | 4.00
34 | CC(C)c1ccc2cccnc2c1NS(=O)(=O)c1ccccc1 | 4.00
35 | COc1cc2cccnc2c2c1-c1ccccc1S(=O)(=O)N2 | 4.00
36 | COc1cc(NS(=O)(=O)Nc2c(F)cccc2F)c2ncccc2c1 | 4.00
37 | COc1ccnc2c3c(ccc12)-c1ccccc1S(=O)(=O)N3 | 4.00
38 | CN1c2c(ccc3cccnc23)-c2ccccc2S1(=O)=O | 4.00
